Literature values, collected in patent US6979677B1, “Inhibition of vascular smooth muscle cell proliferation” (priority 1994, dated 2005).

Assays:
cerebral glioma = conditions: rats with HSV-tk-expressing murine fibroblasts, given GCV
lymphomas = conditions: of 12 mice treated with GCV
[1] = test system: transplantable murine adenocarcinoma; conditions: HSV-tk transfected adenocarcinoma treated with GCV
[2] = test system: nondividing rabbit arterial cells

Nc1nc(O)c2ncn(COC(CO)CO)c2n1 [GCV, ganciclovir]
glioma regression, microscopically and macroscopically (cerebral glioma): regressed completely | number of mice with complete tumor regression (lymphomas): 11 | tumor response in vivo [1]: regression | expression of HSV-tk-β-galactosidase construct under GCV treatment [2]: unaffected
